Drawing on patent publication US6531143B1, “α-hydroxy fatty acid derivatives and external compositions containing the same” (Kanebo, Limited, priority 1998, dated 2003), this text covers Positive percentage and melting point for 7 compounds.

Series [1] concerns skin (facies medialis brachii of 20 subjects). As to conditions: in vivo.
Description: (§1) As the safety test, irritation to the skin was examined by the following method. Each sample of the alpha-hydroxy fatty acid derivatives obtained in the Examples prepared by dissolving in olive oil in the concentration of 50 wt % and an adhesive plaster for patch test was impregnated with 1 ml of the sample. The adhesive plaster was put on the facies medialis brachii of 20 subjects for 24 hours. Irritation was evaluated 24 hours after removing the patch.
The test system is the same in series [2]. Nature of the series: Safety test: irritation to the skin, 24 h patch test. As to conditions: 50 wt % in olive oil, 1 ml on adhesive plaster, 24 hours on facies medialis brachii, evaluated 24 hours after removing the patch, subjects with clear erythema.
Description: as §1

Like-named read-outs stand apart in the source and are kept apart here.

Regarding “2-long-chain branched fatty acid (12-31) oxypalmitic acid palmityl ester”, the Positive percentage in series [1] was 0%. On to `CCCCCCCCCCCCCCCCOC(=O)C(CCCCCCCCCCCCCC)OC(C)=O` (stereo not shown) [2-acetyloxypalmitic acid palmityl ester], for which the melting point is 35.1 °C. This compound also registered a Positive percentage in series [2] of 0%. `CCCCCCCCCCCCCCCCC(OC(C)=O)C(=O)OCCCCCCCCCCCCCCCCCC(C)C` (stereo not shown) [2-acetyloxystearic acid-(18)-methylnonadecanyl ester]: the Positive percentage in series [2] amounted to 0%. On the same count and under the same terms, for `CCCCCCCCCCCCC(OC(=O)C(C)C)C(=O)OCCCCCCCCCCCCCCCCCC(C)CC` (stereo not shown) [2-isobutyryloxymyristic acid-(18)-methylicosanyl ester] the value was 0%. In turn, `CCCCCCCCCCCCCCCCOC(=O)C(CCCCCCCCCCCCCC)OC(=O)C(C)C` (stereo not shown) [2-isobutyryloxypalmitic acid palmityl ester] registered a melting point of 28.3 °C. Further, in series [2], the Positive percentage is listed as 0%. Compound `CCCCCCCCCCCCOC(=O)C(CCCCCCCCCC)OC(=O)CC(C)C` (stereo not shown) [2-isovaleryloxylauric acid lauryl ester] came in with a Positive percentage in series [2] of 0%. The compound `CCCCCCCCCCCCCCCCOC(=O)C(CCCCCCCCCCCCCC)OC(=O)CCCCCCCCCCCCCCC` (stereo not shown) [2-palmitoyloxypalmitic acid palmityl ester] came in with a melting point of 52.5 °C. The compound also yielded a Positive percentage in series [2] of 0%.
